Consider 11 compounds from ChEMBL document CHEMBL1201862, “PubChem BioAssay data set” (2004).

Holding throughout (test): NCI tumour cell line growth inhibition, 48 h
In test [1] the test system is MDA-MB-231.
In test [2] the test system is SK-OV-3.
In test [3] the test system is TK-10.
Test [4] has as its system SK-MEL-28.
Test [5] has as its system EKVX.
For test [6], the system named is UACC-62.
The test system of test [7] is RXF 393.
Test [8] concerns M14.
In test [9] the test system is SNB-75.
Test [10] concerns SW-620.
In test [11] the test system is RPMI-8226.
Test [12] has as its system MCF7.
The subject of test [13] is OVCAR-8.
Test [14] relates to SF-295.
The subject of test [15] is COLO 205.
For test [16], the system named is IGROV-1.
For test [17], the system named is 786-0.
Test [18] relates to SF-539.
The test system of test [19] is K562.
The subject of test [20] is HOP-92.

SMILES strings stand for the structures.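 Cells were grown in 96-well plates and exposed to each compound for 48 hours at five concentrations; endpoints were interpolated linearly between bracketing concentrations, or set to the highest concentration if not reached. At the GI50, growth is halved.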 Calls of active or inactive are those of the source. Rule as the data show it: active = GI50 up to about 1.1 µM and inactive = higher.

Regarding `COC(=O)C1=C(OC(=O)c2ccccc2)C(C(=O)OC)[C@@]2(O)[C@@H](C(=O)OC)[C@H](C)C[C@@H]1[C@@H]2C(=O)OC` (some centres undefined), the GI50 was 37.7 µM (inactive) in test [1]; 29.5 µM (inactive) in test [2]; 75.9 µM (inactive) in [3]; 27.2 µM (inactive) in [4]; 31.6 µM (inactive) in [5]; 39.7 µM (inactive) in [6]. Further, the GI50 in test [7] was 14.4 µM (inactive); in [8] it was 28.3 µM (inactive); in test [9], 22.9 µM (inactive); in test [10], 28.6 µM (inactive); in test [11] it was 19 µM (inactive); in [12] it was 29 µM (inactive). For the same compound, the GI50 was 26.4 µM (inactive) in test [13]; 35.1 µM (inactive) in test [14]; 17.6 µM (inactive) in [15]; 33.8 µM (inactive) in test [16]; 38.1 µM (inactive) in test [17]; 14.5 µM (inactive) in [18].

With `CC(=O)OC(=C(C#N)C#N)c1nccnc1C(C)=O`, the GI50 is > 20 µM (inactive) in test [1]; > 20 µM (inactive) in test [2]; 9.77 µM (inactive) in test [4]; > 20 µM (inactive) in test [5]; 11 µM (inactive) in [19]; > 20 µM (inactive) in test [6]. The GI50 in test [7] was 5.77 µM (inactive); in test [8] it was 4.8 µM (inactive); in test [9], 3.96 µM (inactive); in test [10], > 20 µM (inactive); in test [12], > 20 µM (inactive); in test [13], > 20 µM (inactive). Moreover, the GI50 in test [14] is 10.9 µM (inactive); in [15], 4.55 µM (inactive); in test [16], > 20 µM (inactive); in [17] it was > 20 µM (inactive); in test [18], 7.24 µM (inactive); in test [20] it was > 20 µM (inactive).

For the compound `CCn1c(-c2ccc(/N=N/Nc3ccc(-c4n[nH]c(=S)n4CC)cc3)cc2)n[nH]c1=S`, the GI50 in test [1] was 4.2 µM (inactive); in [2], 3.33 µM (inactive); in test [3], 4.92 µM (inactive); in test [4], 4.18 µM (inactive); in test [5], 2.41 µM (inactive); in test [19], 2.67 µM (inactive). In addition, the GI50 is 3.43 µM (inactive) in test [7]; 2.65 µM (inactive) in test [8]; 2.79 µM (inactive) in test [9]; 4.8 µM (inactive) in test [10]; 1.92 µM (inactive) in [11]; 3.33 µM (inactive) in test [12]. The GI50 in test [13] was 2.28 µM (inactive); in test [14], 2.46 µM (inactive); in test [15], 2.69 µM (inactive); in test [16], 3.09 µM (inactive); in test [17] it was 4.24 µM (inactive); in test [20], 2.79 µM (inactive).

As to `Oc1ccc(-c2nc(-c3cccnc3)c(-c3ccc(Cl)cc3)[nH]2)cc1O`, the GI50 was 17.3 µM (inactive) in test [1]; 12.4 µM (inactive) in test [2]; 10.4 µM (inactive) in test [3]; 17.5 µM (inactive) in test [4]; 18 µM (inactive) in test [5]; > 100 µM (inactive) in [19]. Further, the GI50 in test [6] is 11.2 µM (inactive); in [7], 12.7 µM (inactive); in test [8], 13.6 µM (inactive); in test [9], 6.05 µM (inactive); in test [10], 12.4 µM (inactive); in [11], > 100 µM (inactive). Moreover, the GI50 was 11.5 µM (inactive) in [12]; 11.9 µM (inactive) in [13]; 16.2 µM (inactive) in test [14]; 13.9 µM (inactive) in test [15]; 4.34 µM (inactive) in test [16]; 12 µM (inactive) in test [17].

On to `C=CCCCC1(C)CCCCNC1=O` (centres undefined), for which the GI50 in [1], in [2], in test [3], in test [4], in test [5] and in [19] was > 10 µM (inactive) each time. Moreover, the GI50 in test [6], in test [7], in [8], in test [9], in test [10] and in [11] was > 10 µM (inactive) each time. Moreover, the GI50 in [12], in test [13], in [14], in [15], in test [16] and in [17] was > 10 µM (inactive) each time. Moreover, in test [18], the GI50 is > 10 µM (inactive).

Take `CC(=O)c1cc(C)n2c1CS[C@@H]2c1ccccc1`: the GI50 is 43.3 µM (inactive) in test [1]; > 100 µM (inactive) in test [2]; 91 µM (inactive) in [3]; > 100 µM (inactive) in [4]; 34.9 µM (inactive) in test [5]; 31.6 µM (inactive) in test [19]. In addition, the GI50 in test [7] was 31.5 µM (inactive); in test [8] it was > 100 µM (inactive); in [9], 65.8 µM (inactive); in test [10], 33.7 µM (inactive); in test [11] it was 7.85 µM (inactive); in test [12], 35.9 µM (inactive). The GI50 was 70.8 µM (inactive) in [13]; 65.9 µM (inactive) in [14]; 12.2 µM (inactive) in [15]; 32.7 µM (inactive) in test [16]; 19.7 µM (inactive) in test [17]; 20.2 µM (inactive) in test [20].

As to `CCOC(=O)C(C)NC(=O)C(C)NC(=O)C(C)NC(=O)C(C)NC(=O)C(C)NC(=O)OCc1ccccc1` (centres undefined), the GI50 in test [1], in [2], in test [3], in [4], in test [5] and in [19] was > 100 µM (inactive) each time. Also, the GI50 was > 100 µM (inactive) in test [6]; > 100 µM (inactive) in test [7]; > 100 µM (inactive) in test [8]; 78.3 µM (inactive) in test [9]; > 100 µM (inactive) in test [10]; > 100 µM (inactive) in [11]. The GI50 in test [12], in [13], in test [14], in [15], in [16] and in test [17] was > 100 µM (inactive) throughout. In addition, in test [18], the GI50 is > 100 µM (inactive).

Take `CC1(C)C2CCC(=O)C1C(OCc1ccccc1)C2` (centres undefined): the GI50 was > 100 µM (inactive) in test [1]; > 100 µM (inactive) in test [2]; > 100 µM (inactive) in test [3]; > 100 µM (inactive) in [4]; 96.4 µM (inactive) in test [19]; > 100 µM (inactive) in test [6]. Moreover, the GI50 in test [7], in [8], in test [9], in [10], in test [11] and in test [12] was > 100 µM (inactive) each time. In addition, the GI50 in test [13], in test [14], in [15], in [16], in test [17] and in [18] was > 100 µM (inactive) in each case.

With `COC([C@@H](OC(=O)c1ccccc1)[C@H](OC(=O)c1ccccc1)C(O)COC(=O)c1ccccc1)n1cc(C)c(=O)[nH]c1=O` (some centres undefined), the GI50 in [1] is 40.6 µM (inactive); in test [2], 40.6 µM (inactive); in [3], 33.8 µM (inactive); in test [4], 39.3 µM (inactive); in [5] it was 26.1 µM (inactive); in [19] it was 13.7 µM (inactive). Also, the GI50 in test [6] is 17.3 µM (inactive); in test [7] it was 14 µM (inactive); in test [8], 22.8 µM (inactive); in test [9], 22.5 µM (inactive); in test [10], 21.3 µM (inactive); in test [11], > 100 µM (inactive). For the same compound, the GI50 was 13 µM (inactive) in test [12]; 39.1 µM (inactive) in [13]; 24.4 µM (inactive) in test [14]; 22 µM (inactive) in test [15]; 31.4 µM (inactive) in [16]; 26.2 µM (inactive) in test [17].

For `Oc1nc(-c2cccc(F)c2)nc2ccccc12`, the GI50 in [1] was > 42.2 µM (inactive); in test [2] it was 28.7 µM (inactive); in test [3] it was 34.6 µM (inactive); in test [4], > 76.7 µM (inactive); in test [5], > 67.3 µM (inactive); in test [19], 0.461 µM (active). Further, the GI50 in test [6] is 23.1 µM (inactive); in [7] it was 29.9 µM (inactive); in test [8], 62.1 µM (inactive); in test [9], 16.6 µM (inactive); in test [10], > 87.7 µM (inactive); in [12], 87.1 µM (inactive). In addition, the GI50 in test [13] is 29.8 µM (inactive); in test [14], 39.4 µM (inactive); in [15] it was > 100 µM (inactive); in [16], 57.1 µM (inactive); in test [17], 38.6 µM (inactive); in test [20] it was 30.7 µM (inactive).

With `O=C1c2scc(-c3ccc(F)cc3)c2-n2cccc21`, the GI50 was 24.7 µM (inactive) in test [1]; 40.6 µM (inactive) in test [2]; 45.3 µM (inactive) in [3]; 29.2 µM (inactive) in test [4]; 24.4 µM (inactive) in test [5]; 18.6 µM (inactive) in test [6]. For the same compound, the GI50 is 26.1 µM (inactive) in test [7]; 29.5 µM (inactive) in test [8]; 6.4 µM (inactive) in test [9]; 27.4 µM (inactive) in test [10]; 24.5 µM (inactive) in test [11]; 21.2 µM (inactive) in test [12]. Moreover, the GI50 in [13] was 57.7 µM (inactive); in [14], 26.2 µM (inactive); in [15] it was 44.9 µM (inactive); in test [16], 18.3 µM (inactive); in test [17], 15.7 µM (inactive).
